In EP1724268A1, “COMPOUND HAVING TGF-BETA INHIBITORY ACTIVITY AND PHARMACEUTICAL COMPOSITION CONTAINING SAME” (KIRIN BEER KABUSHIKI KAISHA, priority 2004, dated 2005):
Like-named read-outs stand apart in the source and are kept apart here.

Test system: TGFβ signal
Experiment: TGFβ signal inhibitory activity, (SBE)4-Luc reporter in A549 cells (Test Examples 1A and 1B)
Type: cell-based, human
Conditions: Homo sapiens, A549, read-out: TGFβ inhibition rate, %
Outline: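 Stable A549 line carrying (SBE)4-Luc Smad3-binding reporter treated with compound plus TGFβ-1 (2 ng/ml) for 4 hr; luciferase read by chemiluminescence. Percent inhibition relative to TGFβ-only and untreated cells, tested at 3 µM and 10 µM, some also at 1 µM.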

[1] = 3 µM, compounds of Reference Examples (Test Example 1B)
[2] = 10 µM, compounds of Reference Examples (Test Example 1B)
[3] = test compound 3 µM, TGFβ-1 2 ng/ml, 4 hr, Table 1A
[4] = test compound 10 µM, TGFβ-1 2 ng/ml, 4 hr, Table 1A
[5] = test compound 3 µM, Reference Examples, Table 1B
[6] = test compound 10 µM, Reference Examples, Table 1B

Which results are given for COc1cc2nccc(Oc3cccnc3C)c2cc1OC [r202]?
inhibition at 3 µM [1]: 20%; inhibition at 10 µM [2]: 54%

Cc1cc(Oc2ccnc3ccc(-c4cccnc4)cc23)c(-c2ccccn2)nc1C [Compound 6, 5,6-Dimethyl-3-(6-pyridin-3-yl-quinolin-4-yloxy)-[2,2']bipyridine] was tested. Which inhibition at 3 µM [3] did it give?
Its inhibition at 3 µM is 100%.

And the inhibition at 10 µM [4]?
Its inhibition at 10 µM is 100%.

Which results are given for Fc1cc2nccc(Oc3cc4cccnc4nc3-c3ccccc3)c2cc1F [Compound 101]?
inhibition at 3 µM [3]: 54%; inhibition at 10 µM [4]: 98%

For CNC(=O)c1cc(OC)ccc1Oc1ccnc2cc(OC)c(OC)cc12 [Compound r110], which inhibition at 3 µM [5] is on record?
Its inhibition at 3 µM is 55%.

And the inhibition at 10 µM [6]?
Its inhibition at 10 µM is 93%.

With COc1cc2nccc(Oc3ccc(C)nc3-c3cccc(C(F)(F)F)c3)c2cc1OC [Compound r230] as the molecule, how does the inhibition at 3 µM [1] read?
The inhibition at 3 µM was 60%.

What about the inhibition at 10 µM [2] of the same molecule?
Its inhibition at 10 µM is 97%.

With COc1cc2ncnc(Oc3cc4cccnc4nc3-c3ccccc3)c2cc1OC [r436] as the molecule, how does the inhibition at 3 µM [1] read?
The inhibition at 3 µM was 99%.

What about the inhibition at 10 µM [2] of the same molecule?
Its inhibition at 10 µM is 100%.

What does the source list for COc1cc2nccc(Oc3cc4cccnc4nc3-c3ccc(F)cc3)c2cc1OC [Compound 83, 3-(6,7-Dimethoxy-quinolin-4-yloxy)-2-(4-fluoro-phenyl)-[1,8]naphthyridine]?
inhibition at 3 µM [3]: 92%; inhibition at 10 µM [4]: 99%

With COc1cc2c(Oc3ccc(C)nc3-c3nccs3)ccnc2cc1OCC(CO)CO [Compound r330] as the molecule, how does the inhibition at 3 µM [1] read?
Its inhibition at 3 µM is 100%.

What about the inhibition at 10 µM [2] of the same molecule?
The inhibition at 10 µM was 100%.

Which inhibition at 3 µM [1] does the source give for COc1cc2c(Oc3cc(C)c(C)nc3-c3ccccn3)ccnc2cc1OCC1CO1 (stereo not shown) [Compound r341] here?
The inhibition at 3 µM was 99%.

How did the inhibition at 3 µM [1] turn out when COc1cc2nccc(Oc3cc4ccccc4nc3C)c2cc1OC [r276] was run?
The inhibition at 3 µM was 89%.

And the inhibition at 10 µM [2]?
Its inhibition at 10 µM is 100%.

With COc1cc2c(Oc3ccc(C)cc3C(=O)c3ccccc3)ccnc2cc1OCCCCl [Compound r132] as the molecule, how does the inhibition at 3 µM [5] read?
The inhibition at 3 µM was 72%.

What about the inhibition at 10 µM [6] of the same molecule?
The inhibition at 10 µM was 99%.

With COc1cc2nccc(Oc3cc(C)ccc3C(C)=O)c2cc1OC [Compound r32] as the molecule, how does the inhibition at 3 µM [5] read?
The inhibition at 3 µM was 81%.

And the inhibition at 10 µM [6]?
Its inhibition at 10 µM is 98%.

For COc1cc2nccc(Oc3ccc(C)cc3C(=O)c3ccco3)c2cc1OC [Compound r60], which inhibition at 3 µM [5] is on record?
The inhibition at 3 µM was 63%.

What about the inhibition at 10 µM [6] of the same molecule?
Its inhibition at 10 µM is 98%.

For COc1ccc(C(=O)c2ccccc2)c(Oc2ccnc3cc(OC)c(OC)cc23)c1 [Compound r64], which inhibition at 3 µM [5] is on record?
Its inhibition at 3 µM is 67%.

And the inhibition at 10 µM [6]?
The inhibition at 10 µM was 98%.

COc1ccc(Oc2ccnc3cc(OC)c(OC)cc23)c(C=O)c1 [Compound r26] was tested. Which inhibition at 3 µM [5] did it give?
Its inhibition at 3 µM is 20%.

And the inhibition at 10 µM [6]?
Its inhibition at 10 µM is 73%.

Which inhibition at 3 µM [3] does the source give for Cc1ccc(Oc2ccnc3ccc(OCCCN(CCO)c4ccccc4)cc23)c(-c2ncccn2)n1 [Compound 219, 2-({3-[4-(6-Methyl-2-pyrimidin-2-yl-pyridin-3-yloxy)-quinolin-6-yloxy]-propyl}-phenylamino)-ethanol] here?
Its inhibition at 3 µM is 96%.

What about the inhibition at 10 µM [4] of the same molecule?
The inhibition at 10 µM was 100%.

For COc1cc2nccc(Oc3ccc(C)cc3C(=O)C(C)(C)C)c2cc1OC [Compound r54], which inhibition at 3 µM [5] is on record?
The inhibition at 3 µM was 13%.

And the inhibition at 10 µM [6]?
Its inhibition at 10 µM is 73%.

For CCOC(=O)c1cc(I)ccc1Oc1ccnc2cc(OC)c(OC)cc12 [Compound r86], which inhibition at 3 µM [5] is on record?
The inhibition at 3 µM was 68%.

What about the inhibition at 10 µM [6] of the same molecule?
Its inhibition at 10 µM is 99%.

COc1cc2nccc(Oc3cc(C)c(C)cc3/C(C)=N/OCc3ccccc3)c2cc1OC [r198] was tested. Which inhibition at 3 µM [1] did it give?
Its inhibition at 3 µM is 32%.

What about the inhibition at 10 µM [2] of the same molecule?
The inhibition at 10 µM was 80%.

Which inhibition at 3 µM [1] does the source give for COc1cc2nccc(Oc3ccc(Cl)nc3)c2cc1OC [r206] here?
The inhibition at 3 µM was 69%.

What about the inhibition at 10 µM [2] of the same molecule?
The inhibition at 10 µM was 94%.

With COc1cc2c(Oc3cc4ccccc4nc3C(C)=O)ccnc2cc1OCCN1CCCCC1 [Compound r467] as the molecule, how does the inhibition at 3 µM [1] read?
Its inhibition at 3 µM is 100%.

For Cc1cc(Oc2ccnc3cc(Cl)c(Cl)cc23)c(-c2ccccn2)nc1C [Compound 131, 3-(6,7-Dichloro-quinolin-4-yloxy)-5,6-dimethyl-[2,2']bipyridine], which inhibition at 3 µM [3] is on record?
The inhibition at 3 µM was 99%.

And the inhibition at 10 µM [4]?
The inhibition at 10 µM was 100%.

For COc1cc2nccc(Oc3ccnc4ccsc34)c2cc1OC [Compound r307], which inhibition at 3 µM [1] is on record?
Its inhibition at 3 µM is 26%.

What about the inhibition at 10 µM [2] of the same molecule?
The inhibition at 10 µM was 69%.

Which inhibition at 3 µM [1] does the source give for COc1cc2c(Oc3cc4ccccc4nc3C)ccnc2cc1OCCCN1CCCCC1 [Compound r378] here?
Its inhibition at 3 µM is 100%.

And the inhibition at 10 µM [2]?
Its inhibition at 10 µM is 100%.

What does the source list for COc1cc2nccc(Oc3c(C(C)=O)ccc4ccccc34)c2cc1OC [Compound r41]?
inhibition at 3 µM [5]: 57%; inhibition at 10 µM [6]: 97%

How did the inhibition at 3 µM [1] turn out when COc1cccc(-c2nc(C)ccc2Oc2ccnc3cc(OC)c(OC)cc23)c1 [Compound r238] was run?
The inhibition at 3 µM was 92%.

What about the inhibition at 10 µM [2] of the same molecule?
The inhibition at 10 µM was 100%.

Cc1ccc(-c2nc(C)c(C)cc2Oc2ccnc3ccccc23)nc1 [Compound r431] was tested. Which inhibition at 3 µM [1] did it give?
The inhibition at 3 µM was 97%.

And the inhibition at 10 µM [2]?
Its inhibition at 10 µM is 99%.

What does the source list for COc1cc2nccc(Oc3cc4cccnc4cc3OC)c2cc1OC [Compound r297, 6,7-Dimethoxy-4-(7-methoxy-quinolin-6-yloxy)-quinoline]?
inhibition at 3 µM [1]: 61%; inhibition at 10 µM [2]: 94%

With COc1cc2nccc(Oc3ccc4ncsc4c3-c3ccccc3)c2cc1OC [Compound r295] as the molecule, how does the inhibition at 3 µM [1] read?
The inhibition at 3 µM was 47%.

And the inhibition at 10 µM [2]?
Its inhibition at 10 µM is 96%.

How did the inhibition at 3 µM [3] turn out when CCc1nc2ncccc2cc1Oc1ccnc2cc(OC)c(F)cc12 [Compound 161, 2-Ethyl-3-(6-fluoro-7-methoxy-qulnolin-4-yloxy)-[1,8]naphthyridine] was run?
Its inhibition at 3 µM is 68%.

What about the inhibition at 10 µM [4] of the same molecule?
Its inhibition at 10 µM is 95%.

Which results are given for COc1cc2nccc(Oc3cc(C)c(C)nc3-c3ncccn3)c2cc1F [Compound 158, 4-(5,6-Dimethyl-2-pyrimidin-2-yl-pyridin-3-yloxy)-6-fluoro-7-methoxy-quinoline]?
inhibition at 3 µM [3]: 98%; inhibition at 10 µM [4]: 100%

What does the source list for COc1cc2ncnc(Oc3cc(C)c(C)nc3-c3ncccn3)c2cc1OC [Compound 51, 4-(5,6-Dimethyl-2-pyrimidin-2-yl-pyridin-3-yloxy)-6,7-dimethoxy-quinazoline]?
inhibition at 3 µM [3]: 93%; inhibition at 10 µM [4]: 100%

How did the inhibition at 3 µM [1] turn out when COc1cc2c(Oc3cc4cnccc4nc3C)ccnc2cc1OCc1ccccc1 [Compound r406] was run?
Its inhibition at 3 µM is 56%.

What about the inhibition at 10 µM [2] of the same molecule?
The inhibition at 10 µM was 96%.

What does the source list for COc1cc2c(Oc3cc(C)c(C)nc3-c3ccc(C)cn3)ccnc2cc1OCc1ccccc1 [Compound r452]?
inhibition at 3 µM [1]: 67%; inhibition at 10 µM [2]: 99%

How did the inhibition at 3 µM [5] turn out when COc1cc2nccc(Oc3ccc(C)cc3[N+](=O)[O-])c2cc1OC [r13] was run?
The inhibition at 3 µM was 28%.

What about the inhibition at 10 µM [6] of the same molecule?
Its inhibition at 10 µM is 78%.

With COc1cc2nccc(Oc3ccc(C)nc3C)c2cc1OC [Compound r209] as the molecule, how does the inhibition at 3 µM [1] read?
The inhibition at 3 µM was 99%.

And the inhibition at 10 µM [2]?
The inhibition at 10 µM was 100%.

Which results are given for COc1cc2c(Oc3cc(C)c(C)nc3-c3ccccn3)ccnc2cc1C [Compound 119, 3-(6-Methoxy-7-methyl-quinolin-4-yloxy)-5,6-dimethyl-[2,2']bipyridine]?
inhibition at 3 µM [3]: 100%; inhibition at 10 µM [4]: 100%

Which results are given for COc1ccc(Oc2ccnc3cc(OC)c(OC)cc23)c(C(=O)NC(C)C)c1 [Compound r111]?
inhibition at 3 µM [5]: 29%; inhibition at 10 µM [6]: 92%

Which results are given for COc1cc2c(Oc3ccc(C)cc3C(=O)c3ccccc3)ccnc2cc1OCCCN1CCOCC1 [r139]?
inhibition at 3 µM [5]: 99%; inhibition at 10 µM [6]: 100%

With Cc1cc(Oc2ccnc3cc(-c4ccccn4)ccc23)c(-c2ccccn2)nc1C [Compound 176, 5,6-Dimethyl-3-(7-pyridin-2-yl-quinolin-4-yloxy)-[2,2']bipyridine] as the molecule, how does the inhibition at 3 µM [3] read?
The inhibition at 3 µM was 99%.

And the inhibition at 10 µM [4]?
The inhibition at 10 µM was 100%.

What does the source list for COc1cc2nccc(Oc3ccc(C)nc3-c3ccccc3OC)c2cc1OC [Compound r227]?
inhibition at 3 µM [1]: 50%; inhibition at 10 µM [2]: 87%

With COc1cc2nccc(Oc3ccc(C)nc3-c3ccc(F)cc3)c2cc1OC [Compound r251] as the molecule, how does the inhibition at 3 µM [1] read?
The inhibition at 3 µM was 84%.

And the inhibition at 10 µM [2]?
The inhibition at 10 µM was 100%.
